Laboratory results published in ChEMBL document CHEMBL5247613, “Design, synthesis and biological evaluation of a new class of Hsp90 inhibitors vibsanin C derivatives” (Eur J Med Chem, 2022).
Active and inactive are the calls of the source. No cut-off for these calls is given here.

Experiments:
Reticulocyte [1] = assay: Inhibition of HSP90 in rabbit reticulocyte lysates at 10 uM incubated for 3 hrs by denatured luciferase refolding assay; assay type: subcellular; conditions: Oryctolagus cuniculus
SMMC-7721 = assay: Antiproliferative activity against human SMMC-7721 cells assessed as reduction in cell viability incubated for 48 hrs by MTT assay; assay type: functional, cell-based; conditions: SMMC-7721, 48 h
HL-60 = assay: Antiproliferative activity against human HL-60 cells assessed as reduction in cell viability incubated for 48 hrs by MTT assay; assay type: functional, cell-based; conditions: HL-60, 48 h
SW480 = assay: Antiproliferative activity against human SW480 cells assessed as reduction in cell viability incubated for 48 hrs by MTT assay; assay type: functional, cell-based; conditions: SW480, 48 h
A549 = assay: Antiproliferative activity against human A549 cells assessed as reduction in cell viability incubated for 48 hrs by MTT assay; assay type: functional, cell-based; conditions: A549, 48 h
[2] = Inhibition of HSP90 in rabbit reticulocyte lysates incubated for 3 hrs by denatured luciferase refolding assay; assay type: subcellular, Oryctolagus cuniculus
MCF7 = assay: Antiproliferative activity against human MCF7 cells assessed as reduction in cell viability incubated for 48 hrs by MTT assay; assay type: functional, cell-based; conditions: MCF7, 48 h
[3] = biological target: T1, Heat shock protein HSP90 (Homo sapiens) (UniProt P07900+P08238); assay: Binding affinity to full length HSP90 (unknown origin) expressed in Escherichia coli BL21(DE3) cells at 20 uM by NMR STD assay
[4] = biological target: T1, Heat shock protein HSP90 (Homo sapiens); assay: Inhibition of HSP90 in human HL-60 cells assessed as increase in HSP27 protein expression incubated for 24 hrs by western blot analysis; assay type: cell-based; conditions: dose 1-10 µM
[5] = biological target: T1, Heat shock protein HSP90 (Homo sapiens); assay: Inhibition of HSP90 in human HL-60 cells assessed as decrease in CDK4 protein expression incubated for 24 hrs by western blot analysis; assay type: cell-based; conditions: dose 1-10 µM
Reticulocyte [6] = assay: Inhibition of HSP90 in rabbit reticulocyte lysates at 500 uM incubated for 3 hrs by denatured luciferase refolding assay; assay type: subcellular; conditions: Oryctolagus cuniculus

Structure (SMILES)	inhibition (Reticulocyte [1]) [%]	also measured
CC(C)=CCC[C@@]1(C)CC=C(COC(=O)c2ccc3cc[nH]c3c2)c2[nH]c(C)cc2[C@@H]1/C=C/OC(=O)C=C(C)C	50.8	
CC(C)=CCC[C@@]1(C)CC=C(CF)c2nnc(C)cc2[C@@H]1/C=C/OC(=O)C=C(C)C	77.8	IC50 (SMMC-7721): 15.7 µM; IC50 (HL-60): 3.45 µM; IC50 (SW480): 18.2 µM; IC50 (A549): 20.5 µM; IC50 [2]: 0.37 µM; IC50 (MCF7): 17.6 µM
CC(=O)C[C@@H]1C(=O)C(CCl)=CC[C@](C)(CCC=C(C)C)[C@H]1/C=C/OC(=O)C=C(C)C	53.1	
CC(=O)C[C@@H]1C(=O)C(COC(=O)c2cc(Cl)ccc2N)=CC[C@](C)(CCC=C(C)C)[C@H]1/C=C/OC(=O)C=C(C)C	61.8	IC50 [2]: 4.09 µM
CC(C)=CCC[C@@]1(C)CC=C(CF)c2[nH]c(C)cc2[C@@H]1/C=C/OC(=O)C=C(C)C	68.8	IC50 [2]: 3.61 µM
CC(=O)C[C@@H]1C(=O)C(CN2CCOCC2)=CC[C@](C)(CCC=C(C)C)[C@H]1/C=C/OC(=O)C=C(C)C	14.2	
CC(C)=CCC[C@]1(C)/C=C/[C@@H](OC(=O)C=C(C)C)[C@](C)(O)/C=C/C(=O)/C(CN2CCN(C)CC2)=C\C1	93.6	IC50 [2]: 0.98 µM
CC(=O)C[C@@H]1C(=O)C(CO)=CC[C@](C)(CCC(=O)C(C)C)[C@H]1/C=C/OC(=O)C=C(C)C	0.69	
CC(C)=CCC[C@@]1(C)CC=C(CO)C(=O)[C@H]2C[C@@](C)(O)[C@@H](C=O)[C@@H]21	13.3	
CC(C)=CCC[C@@]1(C)CC=C(COC(=O)CCC(=O)O)c2oc(C)cc2[C@@H]1/C=C/OC(=O)C=C(C)C	88.2	Activity [3]: Active; inhibition [4]: Dose-Dependent Effect; IC50 (SMMC-7721): > 40 µM; inhibition [5]: Dose-Dependent Effect; IC50 (HL-60): 16.9 µM; IC50 (SW480): > 40 µM; IC50 (A549): > 40 µM; IC50 [2]: 0.27 µM; IC50 (MCF7): > 40 µM
CC(C)=CCC[C@@]1(C)CC=C(Cn2ccnc2)c2oc(C)cc2[C@@H]1/C=C/OC(=O)C=C(C)C	37.1	
CC(=O)C[C@@H]1C(=O)C(COC(=O)C2CCCCC2)=CC[C@](C)(CCC=C(C)C)[C@H]1/C=C/OC(=O)C=C(C)C	40.3	
CC(C)=CCC[C@@]1(C)CC=C(COC(=O)c2ccc3cc[nH]c3c2)c2oc(C)cc2[C@@H]1/C=C/OC(=O)C=C(C)C	42.9	
CC(C)=CCC[C@@]1(C)CC=C(CCl)c2oc(C)cc2[C@@H]1/C=C/OC(=O)C=C(C)C	32.6	
CC(=O)C[C@@H]1C(=O)C(COC(=O)CCC(=O)O)=CC[C@](C)(CCC=C(C)C)[C@H]1/C=C/OC(=O)C=C(C)C	66.8	IC50 [2]: 7.52 µM
CC(C)=CCC[C@@]1(C)CC=C(CN2CCOCC2)c2[nH]c(C)cc2[C@@H]1/C=C/OC(=O)C=C(C)C	6.37	
CC(=O)C[C@@H]1C(=O)C(CO)=CC[C@](C)(CCC2OC2(C)C)[C@H]1/C=C/OC(=O)C=C(C)C (stereo partly specified)	36.6	
CC(C)=CCC[C@@]1(C)CC=C(C=O)c2[nH]c(C)c(Cl)c2[C@@H]1/C=C/OC(=O)C=C(C)C	45	
CC(=O)C[C@@H]1C(=O)[C@H](CO)CC[C@](C)(CCCC(C)C)[C@H]1/C=C/OC(=O)C=C(C)C	22.8	
CC(C)=CCC[C@@]1(C)CC=C(COC(=O)CCC(=O)O)c2[nH]c(C)cc2[C@@H]1/C=C/OC(=O)C=C(C)C	71	IC50 [2]: 6.05 µM
CC(C)=CCC[C@@]1(C)CC=C(CNc2ccc(F)cc2)c2oc(C)cc2[C@@H]1/C=C/OC(=O)C=C(C)C	13.1	

Structure (SMILES)	inhibition (Reticulocyte [1]) [%]	also measured
CC(=O)C[C@@H]1C(=O)C(CNc2ccc(F)cc2)=CC[C@](C)(CCC=C(C)C)[C@H]1/C=C/OC(=O)C=C(C)C	64.5	
CC(C)=CCC[C@@]1(C)CC=C(COC(=O)CCC(=O)Nc2ccc(F)cc2)c2[nH]c(C)cc2[C@@H]1/C=C/OC(=O)C=C(C)C	48	
CC(C)=CCC[C@@]1(C)CC=C(COC(=O)CCC(=O)O)c2nnc(C)cc2[C@@H]1/C=C/OC(=O)C=C(C)C	94.6	IC50 (SMMC-7721): > 40 µM; IC50 (HL-60): > 40 µM; IC50 (SW480): > 40 µM; IC50 (A549): > 40 µM; IC50 [2]: 0.27 µM; IC50 (MCF7): > 40 µM
CC(=O)C[C@@H]1C(=O)C(COC(C)=O)=CC[C@](C)(CCC=C(C)C)[C@H]1/C=C/OC(=O)C=C(C)C	34.9	
CC(C)=CCC[C@@]1(C)CC=C(CO)c2[nH]c(C)cc2[C@@H]1/C=C/OC(=O)C=C(C)C	10.6	
CC(C)=CCC[C@@]1(C)CC=C(CNc2ccc(F)cc2)c2nnc(C)cc2[C@@H]1/C=C/OC(=O)C=C(C)C	49.3	
CC(=O)C[C@@H]1C(=O)C(CO)=CC[C@](C)(CCC=C(C)C)[C@H]1/C=C/OC(=O)C=C(C)C	30	
CC(C)=CCC[C@@]1(C)CC=C(COC(=O)c2ccc3cc[nH]c3c2)c2nnc(C)cc2[C@@H]1/C=C/OC(=O)C=C(C)C	66.6	IC50 [2]: 4.57 µM
CC(=O)C[C@@H]1C(=O)C(COC(=O)c2ccccc2)=CC[C@](C)(CCC=C(C)C)[C@H]1/C=C/OC(=O)C=C(C)C	36.9	
CO[C@@H]1[C@@H](OC(N)=O)[C@@H](O)[C@H](Oc2ccc3c(O)c(NC(=O)c4ccc(O)c(CC=C(C)C)c4)c(=O)oc3c2C)OC1(C)C [NOVOBIOCIN]		inhibition (Reticulocyte [6]): 78.9%; IC50 [2]: 468 µM
CC(C)=CCC[C@@]1(C)CC=C(CO)c2nnc(C)cc2[C@@H]1/C=C/OC(=O)C=C(C)C	23.6	
CC(=O)C[C@@H]1C(=O)C(CF)=CC[C@](C)(CCC=C(C)C)[C@H]1/C=C/OC(=O)C=C(C)C	84.3	IC50 [2]: 4.1 µM
CC(=O)C[C@@H]1C(=O)C(CN2CCN(C(C)C)CC2)=CC[C@](C)(CCC=C(C)C)[C@H]1/C=C/OC(=O)C=C(C)C	23.8	
CC(C)=CCC[C@@]1(C)CC=C(CN2CCN(C(C)C)CC2)c2nnc(C)cc2[C@@H]1/C=C/OC(=O)C=C(C)C	20.1	
CC(=O)C[C@@H]1C(=O)C(CS)=CC[C@](C)(CCC=C(C)C)[C@H]1/C=C/OC(=O)C=C(C)C	0.32	
CC(C)=CCC[C@@]1(C)CC=C(CO)[C@H]2O[C@](C)(O)C[C@H]2[C@@H]1/C=C/OC(=O)C=C(C)C	14.2	
CC(C)=CCC[C@@]1(C)CC=C(CO)c2oc(C)cc2[C@@H]1/C=C/OC(=O)C=C(C)C	82.3	
CC(C)=CCC[C@@]1(C)CC=C(COC(=O)CCC(=O)Nc2ccc(F)cc2)c2nnc(C)cc2[C@@H]1/C=C/OC(=O)C=C(C)C	54.1	
CC(C)=CCC[C@@]1(C)CC=C(CCl)c2nnc(C)cc2[C@@H]1/C=C/OC(=O)C=C(C)C	85.9	IC50 [2]: 2.37 µM
CC(=O)O[C@H]1C(=O)[C@@]2(C)[C@H]([C@H](OC(=O)c3ccccc3)[C@]3(O)C[C@H](OC(=O)[C@H](O)[C@@H](NC(=O)c4ccccc4)c4ccccc4)C(C)=C1C3(C)C)[C@]1(OC(C)=O)CO[C@@H]1C[C@@H]2O [PACLITAXEL]		IC50 (SMMC-7721): 0.097 µM; IC50 (HL-60): < 0.008 µM; IC50 (SW480): < 0.008 µM; IC50 (A549): < 0.008 µM; IC50 (MCF7): < 0.008 µM
CC(C)=CCC[C@@]1(C)CC=C(COC(=O)CCC(=O)Nc2ccc(F)cc2)c2oc(C)cc2[C@@H]1/C=C/OC(=O)C=C(C)C	57	
